# Reference: patent US10945989B2, “Perinatal treatment with a flavonoid agonist of the TrkB receptor for BDNF rescues neurogenesis and behavior in the Ts65Dn mouse model of DS” (ALMA MATER STUDIORUM—Universita' di Bologna, priority 2017, dated 2021)
# Assays:
# TrkB receptor = TrkB receptor (Homo sapiens, UniProt Q16620); settings: Liu et al., 2010 and 2013; cited from earlier work
# [1] = system: granule cells of the dentate gyrus; assay: Stereology of the DG: total number of granule cells; assay type: in vivo, mouse; settings: 5.0 mg/kg P3-P15
# Description: Euploid and Ts65Dn mice received a daily subcutaneous injection (at 9-10 am) of 7,8-DHF (5.0 mg/kg in vehicle: PBS with 1% DMSO) or vehicle from postnatal day 3 (P3) to postnatal day 15. This timing was chosen because it corresponds to that previously used to test the effects of fluoxetine and other pharmacotherapies in the neonate Ts65Dn mouse (Bianchi et al., 2010b; Giacomini et al., 2015; Stagni et al., 2016). Mice that received 7,8-DHF will be called “treated mice” (treated euploid mice: n=25; treated Ts65Dn mice: n=15). Mice that received the vehicle will be called “untreated mice” (untreated euploid mice: n=35; untreated Ts65Dn mice: n=21). […]
# Unbiased stereology was performed on Hoechst-stained sections from P15 mice. […] Granule cell nuclei were counted with a ×64 oil objective (1.4 NA). Granule cell nuclei intersecting the uppermost focal plane and intersecting the exclusion lines of the count frame were not counted. […]
# where Q is the number of particles counted in the disectors, dis is the number of disectors and Vdis is the volume of the disector. For calculation of Vdis the disector height was corrected for section shrinkage in the z-plane (Dorph Petersen et al., 2001) according to the formula: h=counting thickness×(original thickness/measured thickness). The section thickness was measured during neuron counting at different random locations. […]
# [2] = Mortality before weaning, neonatal treatment
# Text: Treatment with either 7,8-DHFor vehicle began on postnatal day 3(P3). All mice that survived in the P0 to P3 period entered this study, with no specific selection criteria. Total of 185 mice entered the study (96 males and 89 females). The number of vehicle-treated and 7,8-DHF treated mice was 96 and 89, respectively.
# The Ts65Dn strain is characterized by a high mortality rate during gestation (Roper et al., 2006). […] In the current study, treatment with either 7,8-DHF or vehicle began on postnatal day 3 (P3). All mice that survived in the P0 to P3 period entered this study, with no specific selection criteria.
# [3] = system: neural precursor cells of the DG; assay: BrdU-positive cells in the dentate gyrus of P15 mice; assay type: in vivo, mouse; settings: for number of BrdU-positive cells in the DG: Ts65Dn pups
# Description: In a pilot study we tested the effects of different doses of 7,8-DHF on the proliferation rate in the SGZ of Ts65Dn mice. Mice received a daily subcutaneous injection of 7,8-DHF (2.5, 5.0, or 10.0 mg/kg in PBS with 1-2% DMSO) from postnatal day 3 (P3) to P15. […] Therefore, this study (Experiment 1 and Experiment 2) was carried out using a 5.0 mg/kg dose.
# Euploid and Ts65Dn mice received a daily subcutaneous injection (at 9-10 am) of 7,8-DHF (5.0 mg/kg in vehicle: PBS with 1% DMSO) or vehicle from postnatal day 3 (P3) to postnatal day 15. This timing was chosen because it corresponds to that previously used to test the effects of fluoxetine and other pharmacotherapies in the neonate Ts65Dn mouse (Bianchi et al., 2010b; Giacomini et al., 2015; Stagni et al., 2016). Mice that received 7,8-DHF will be called “treated mice” (treated euploid mice: n=25; treated Ts65Dn mice: n=15). Mice that received the vehicle will be called “untreated mice” (untreated euploid mice: n=35; untreated Ts65Dn mice: n=21). […] The brains were excised and cut along the midline. The left hemisphere of a group of mice was fixed by immersion in PFA 4% and frozen, and the left hemisphere of another group of mice was used for Golgi staining. The right hemispheres of all mice was kept at −80° C. and used for western blotting.
# One out of six free-floating sections (n=15-18 sections) from the hippocampal formation of P15 mice was incubated with rat anti-BrdU antibody.
# BrdU-positive cells in the DG of P15 mice were detected using a fluorescence microscope (Eclipse; objective: ×40, 0.75 NA; final magnification: ×400). Quantification of BrdU-labeled nuclei was conducted in every 6th section using a modified unbiased stereology protocol that has previously been reported as successfully quantifying BrdU labeling (Malberg et al., 2000; Kempermann and Gage, 2002; Tozuka et al., 2005). All BrdU labeled cells located in the granule cell and subgranular layers were counted in their entire z axis (1 μm steps) in each section. To avoid oversampling errors, nuclei intersecting the uppermost focal plane were excluded. The total number of BrdU labeled cells per animal was determined and multiplied by six to obtain the total estimated number of cells per DG.
# [4] = Prenatal treatment: body and brain weight of P2 mice; assay type: in vivo, mouse; settings: P2 Ts65Dn mice, embryonic treatment
# Description: Ts65Dn females (n=4) were bred C57BL/6JEi×C3SnHeSnJ (B6EiC3) F1 males (n=4). Conception was determined by examining the vaginal plug. Pregnant females received a daily subcutaneous injection of either 7,8-DHF (Sigma-Aldrich) in PBS with 2% DMSO (dose: 5 mg/kg) or vehicle from the embryonic (E) day 10 (E10) to the day of delivery (E20/21). […] On postnatal day 2 (P2) the progeny of 7,8-DHF-treated and vehicle-treated females received an intraperitoneal injection (150 μg/g body weight) of BrdU (Sigma) in 0.9% NaCl solution and were killed after 2 h (on P2; 4-8 animals for each group). Vehicle-treated females and their progeny will be called hereafter untreated mice. The body weight of P2 mice was recorded prior to sacrifice. After sacrifice, brain was excised and weighed.
# Chain of TrkB receptor (Q16620 32-822): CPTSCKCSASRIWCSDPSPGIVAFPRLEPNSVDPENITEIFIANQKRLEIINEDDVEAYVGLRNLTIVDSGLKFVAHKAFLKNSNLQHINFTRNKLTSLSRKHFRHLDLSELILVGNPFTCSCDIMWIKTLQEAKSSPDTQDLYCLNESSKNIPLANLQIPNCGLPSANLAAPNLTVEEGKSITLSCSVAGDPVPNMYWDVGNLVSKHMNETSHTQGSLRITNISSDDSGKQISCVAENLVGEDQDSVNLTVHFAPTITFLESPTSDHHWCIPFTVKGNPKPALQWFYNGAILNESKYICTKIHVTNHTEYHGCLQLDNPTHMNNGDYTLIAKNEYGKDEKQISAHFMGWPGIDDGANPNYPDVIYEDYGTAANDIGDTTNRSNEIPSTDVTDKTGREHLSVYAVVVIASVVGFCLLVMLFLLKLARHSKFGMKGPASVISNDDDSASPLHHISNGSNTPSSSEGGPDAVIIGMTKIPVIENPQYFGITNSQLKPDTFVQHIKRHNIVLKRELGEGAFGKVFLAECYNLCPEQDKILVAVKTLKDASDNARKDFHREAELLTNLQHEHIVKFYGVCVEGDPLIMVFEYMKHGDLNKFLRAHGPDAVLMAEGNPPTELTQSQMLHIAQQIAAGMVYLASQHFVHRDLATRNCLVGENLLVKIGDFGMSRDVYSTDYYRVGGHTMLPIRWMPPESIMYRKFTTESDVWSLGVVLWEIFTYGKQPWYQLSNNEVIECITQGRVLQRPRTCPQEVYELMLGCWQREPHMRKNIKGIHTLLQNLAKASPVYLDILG
smiles,measurement,setting,value
"O=c1cc(-c2ccccc2)oc2c(O)c(O)ccc12 [7,8-DHF, 7,8-dihydroxyflavone]",binding to the TrkB receptor,TrkB receptor,high affinity and specificity
same,total number of granule cells,[1]; P15 Ts65Dn mice,became similar to that of untreated euploid mice
same,total number of granule cells,[1]; P15 euploid mice,no effect on total number of granule cells
same,adverse effects on the health of mice,"[2]; mouse, in vivo",no adverse effects on the health of mice
same,mice that died before weaning,"[2]; treatment from P3, deaths in the P6-P22 period, vehicle 7.3%",5.6%
same,number of BrdU-positive cells in the DG,"[3]; 2.5 mg/kg P3-P15, vs vehicle",no effect
same,number of BrdU-positive cells in the DG,"[3]; 5.0 mg/kg P3-P15, vs vehicle",increased the number of BrdU-positive cells
same,number of BrdU-positive cells in the DG,"[3]; 10.0 mg/kg P3-P15, vs vehicle",increased the number of BrdU-positive cells
same,number of NPCs (BrdU-positive cells) in the DG,"[3]; euploid mice, 5.0 mg/kg P3-P15",no effect on the number of NPCs
same,optimum dose for proliferation rate in the SGZ,"[3]; pilot study, Ts65Dn mice, 2.5, 5.0 or 10.0 mg/kg s.c. P3-P15",5.0 mg/kg
same,total number of BrdU-positive (proliferating) cells per DG,"[3]; treated Ts65Dn mice, 5.0 mg/kg P3-P15, mean±SE, untreated Ts65Dn 7166±337, untreated euploid 10,281±111",8963±449
same,body weight,[4],did not further reduce the body weight
